According to ChEMBL document CHEMBL4665802, “Design, Synthesis, and Structure-Activity Relationships of Indoline-Based Kelch-like ECH-Associated Protein 1-Nuclear Factor (Erythroid-Derived 2)-Like 2 (Keap1-Nrf2) Protein-Protein Interaction Inhibitors” (J Med Chem, 2020):
The source made the active and inactive calls. No cut-off for these calls is given here.

What was measured:
[1] = target: T1, KEAP1/NRF2 (Rattus norvegicus) (UniProt O54968+P57790); experiment: Inhibition of Keap1-Nrf2 protein-protein interaction in rat H9c2 cells assessed as upregulation of HO1 mRNA expression incubated for 12 hrs by Trizol reagent based qRT-PCR analysis; format: cell-based; details: dose microM 0.1-10, time 12.0 hrs
Mus musculus [2] = experiment: Upregulation of Nrf2 protein levels in LPS-stimulated C57BL/6 mouse model at 10 to 40 mg/kg, ip qd administered for 3 days prior to LPS stimulation and measured after 12 hrs by Western blot analysis; format: functional, organism-based; details: dose mg/kg 10-40, time 3.5 day
H9c2 [3] = experiment: Antiinflammatory activity against LPS-induced sepsis in rat H9c2 cells assessed as decrease in secretion of TNF-alpha at 1 to 10 uM pretreated for 12 hrs followed by LPS addition measured after 12 hrs by sandwich ELISA; format: functional, cell-based; details: dose microM 1-10, time 24.0 hrs
H9c2 [4] = experiment: Antioxidant activity against LPS-induced injury in rat H9c2 cells assessed as decrease in ROS level at 10 uM pretreated for 12 hrs followed by LPS addition measured after 12 hrs by H2DCFDA probe based flow cytometry; format: functional, cell-based; details: time 24.0 hrs
Mus musculus [5] = experiment: Cardioprotective activity in LPS-stimulated sepsis in C57BL/6 mouse assessed as reduction in histological score at 10 mg/kg, ip qd administered for 3 days prior to LPS stimulation and measured after 12 hrs by hematoxylin and eosin staining based microscopy; format: functional, organism-based; details: time 3.5 day
Mus musculus [6] = experiment: Antioxidant activity against LPS-induced injury in C57BL/6 mouse assessed as increase in GSH/GSSG ratio at 10 mg/kg, ip qd administered for 3 days prior to LPS stimulation and measured after 12 hrs; format: functional, organism-based; details: dose mg/kg 10-40, time 3.5 day
CYP1A2 = target: T2, CYP1A2 (Homo sapiens, UniProt P05177); experiment: Inhibition of CYP1A2 (unknown origin) at 10 uM using 7-ethoxycoumarin as substrate preincubated for 5 mins followed by NADPH addition and measured after 20 mins by LC-MS/MS analysis relative to control; format: ADME; details: probe 7-ethoxycoumarin
T2 sequence (P05177 whole entry): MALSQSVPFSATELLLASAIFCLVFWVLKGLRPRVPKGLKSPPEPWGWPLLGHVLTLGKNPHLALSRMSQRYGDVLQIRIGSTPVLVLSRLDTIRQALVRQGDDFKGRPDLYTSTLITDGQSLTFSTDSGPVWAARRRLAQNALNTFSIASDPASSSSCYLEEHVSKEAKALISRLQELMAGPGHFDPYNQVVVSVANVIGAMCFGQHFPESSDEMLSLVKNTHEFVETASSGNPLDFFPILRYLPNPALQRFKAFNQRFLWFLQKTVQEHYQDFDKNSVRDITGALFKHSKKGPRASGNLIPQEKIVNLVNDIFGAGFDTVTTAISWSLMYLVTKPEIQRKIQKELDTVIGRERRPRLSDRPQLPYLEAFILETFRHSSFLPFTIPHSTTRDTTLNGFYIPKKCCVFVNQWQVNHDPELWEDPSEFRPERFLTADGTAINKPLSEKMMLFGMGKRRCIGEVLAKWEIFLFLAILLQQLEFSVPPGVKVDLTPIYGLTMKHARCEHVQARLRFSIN

H9c2 [7] = experiment: Cytoprotective activity against LPS-induced sepsis in rat H9c2 cells assessed as increase in cell viability pretreated with compound for 12 hrs followed by LPS addition measured after 12 hrs by MTT assay; format: functional, cell-based; details: dose microM 0.1-10, time 24.0 hrs
Mus musculus [8] = experiment: Cardioprotective activity in LPS-stimulated sepsis in C57BL/6 mouse assessed as reduction in heart tissue inflammation at 10 mg/kg, ip qd administered for 3 days prior to LPS stimulation and measured after 12 hrs by hematoxylin and eosin staining based microscopy; format: functional, organism-based; details: time 3.5 day
CYP2C19 = CYP2C19 (Homo sapiens, UniProt P33261); experiment: Inhibition of CYP2C19 (unknown origin) at 10 uM using omeprazole as substrate preincubated for 5 mins followed by NADPH addition and measured after 20 mins by LC-MS/MS analysis relative to control; format: ADME; details: probe omeprazole
Sequence of CYP2C19 (P33261 whole entry): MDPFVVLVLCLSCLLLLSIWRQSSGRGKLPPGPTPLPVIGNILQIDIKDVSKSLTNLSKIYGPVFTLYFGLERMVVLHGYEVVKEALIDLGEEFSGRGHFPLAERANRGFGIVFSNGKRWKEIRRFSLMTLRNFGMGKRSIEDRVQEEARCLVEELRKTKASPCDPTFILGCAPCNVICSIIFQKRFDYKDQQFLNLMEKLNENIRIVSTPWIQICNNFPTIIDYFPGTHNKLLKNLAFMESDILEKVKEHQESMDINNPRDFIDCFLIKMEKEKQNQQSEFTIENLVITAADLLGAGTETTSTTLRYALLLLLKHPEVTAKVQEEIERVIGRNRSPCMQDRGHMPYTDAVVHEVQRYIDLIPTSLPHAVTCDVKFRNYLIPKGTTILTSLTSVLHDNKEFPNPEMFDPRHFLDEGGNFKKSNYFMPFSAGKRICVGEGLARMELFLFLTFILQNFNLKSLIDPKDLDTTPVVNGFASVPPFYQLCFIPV

H9c2 [9] = experiment: Cytotoxicity against rat H9c2 cells assessed as reduction in cell viability up to 100 uM incubated for 24 hrs by MTT assay; format: cell-based; details: h9c2, 24 h
CYP3A4 = CYP3A4 (Homo sapiens, UniProt P08684); experiment: Inhibition of CYP3A4 (unknown origin) at 10 uM using […] as substrate preincubated for 5 mins followed by NADPH addition and measured after 20 mins by LC-MS/MS analysis relative to control; format: ADME
Sequence of CYP3A4 (P08684 whole entry): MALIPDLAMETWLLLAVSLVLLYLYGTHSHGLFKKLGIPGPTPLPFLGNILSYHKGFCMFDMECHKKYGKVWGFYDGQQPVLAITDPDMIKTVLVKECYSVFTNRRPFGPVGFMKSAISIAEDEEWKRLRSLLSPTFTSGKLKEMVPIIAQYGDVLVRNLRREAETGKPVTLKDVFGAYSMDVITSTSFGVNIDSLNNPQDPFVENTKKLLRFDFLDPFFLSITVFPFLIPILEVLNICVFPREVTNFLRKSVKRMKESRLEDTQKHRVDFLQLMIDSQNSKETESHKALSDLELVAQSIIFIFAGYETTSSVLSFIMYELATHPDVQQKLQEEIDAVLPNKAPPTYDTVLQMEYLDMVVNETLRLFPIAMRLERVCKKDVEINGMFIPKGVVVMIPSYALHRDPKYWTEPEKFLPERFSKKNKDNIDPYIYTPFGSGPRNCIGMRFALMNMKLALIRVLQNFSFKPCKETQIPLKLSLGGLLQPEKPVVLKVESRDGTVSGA

[10] = Cmax in rat at 5 mg/kg, iv by LC-MS/MS analysis; format: ADME, organism-based; design: route intravenous, dose 5 mg/kg; details: in vivo
[11] = target: T1, KEAP1/NRF2 (Rattus norvegicus); experiment: Inhibition of Keap1-Nrf2 protein-protein interaction in rat H9c2 cells assessed as upregulation of GCLM expression incubated for 12 hrs by Western blot analysis; format: cell-based; details: dose microM 0.1-10, time 12.0 hrs
CYP2C9 = CYP2C9 (Homo sapiens, UniProt P11712); experiment: Inhibition of CYP2C9 (unknown origin) at 10 uM using […] as substrate preincubated for 5 mins followed by NADPH addition and measured after 20 mins by LC-MS/MS analysis relative to control; format: ADME
Sequence of CYP2C9 (P11712 whole entry): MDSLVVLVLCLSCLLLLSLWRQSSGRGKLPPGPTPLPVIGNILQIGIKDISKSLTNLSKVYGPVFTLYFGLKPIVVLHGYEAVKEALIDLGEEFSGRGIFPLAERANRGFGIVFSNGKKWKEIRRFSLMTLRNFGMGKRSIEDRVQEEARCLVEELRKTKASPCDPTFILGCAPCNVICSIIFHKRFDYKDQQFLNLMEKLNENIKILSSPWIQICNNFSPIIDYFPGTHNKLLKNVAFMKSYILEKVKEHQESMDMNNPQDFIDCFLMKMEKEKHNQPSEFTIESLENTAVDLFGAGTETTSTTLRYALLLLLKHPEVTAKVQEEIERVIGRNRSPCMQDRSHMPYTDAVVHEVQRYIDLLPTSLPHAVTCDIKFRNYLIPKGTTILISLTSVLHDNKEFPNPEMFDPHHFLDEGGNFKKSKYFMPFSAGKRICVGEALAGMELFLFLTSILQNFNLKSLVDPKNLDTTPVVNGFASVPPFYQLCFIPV

Mus musculus [12] = experiment: Upregulation of HO1 expression in LPS-stimulated C57BL/6 mouse model of sepsis at 10 to 40 mg/kg, ip qd administered for 3 days prior to LPS stimulation and measured after 12 hrs by Western blot analysis; format: functional, organism-based; details: dose mg/kg 10-40, time 3.5 day
[13] = Metabolic stability in human liver microsome assessed as half-life at 1 uM preincubated for 5 mins followed by NADPH addition and measured after 45 mins by LC-MS/MS analysis; format: ADME; details: liver microsomes
[14] = target: T1, KEAP1/NRF2 (Rattus norvegicus); experiment: Inhibition of Keap1-Nrf2 protein-protein interaction in rat H9c2 cells assessed as upregulation of GCLM expression at 10 uM incubated up to 24 hrs by Western blot; format: cell-based; details: time hrs <=24
Mus musculus [15] = experiment: Antiinflammatory activity in LPS-stimulated sepsis in C57BL/6 mouse assessed as decrease in IL-1beta levels at 10 mg/kg, ip qd administered for 3 days prior to LPS stimulation and measured after 12 hrs by ELISA; format: functional, organism-based; details: time 3.5 day
Mus musculus [16] = experiment: Upregulation of NQO1 expression in LPS-stimulated C57BL/6 mouse model of sepsis at 10 to 40 mg/kg, ip qd administered for 3 days prior to LPS stimulation and measured after 12 hrs by Western blot analysis; format: functional, organism-based; details: dose mg/kg 10-40, time 3.5 day
[17] = target: T1, KEAP1/NRF2 (Rattus norvegicus); experiment: Inhibition of Keap1-Nrf2 protein-protein interaction in rat H9c2 cells assessed as upregulation of HO1 expression incubated for 12 hrs by Western blot analysis; format: cell-based; details: dose microM 0.1-10, time 12.0 hrs
[18] = target: T1, KEAP1/NRF2 (Rattus norvegicus); experiment: Inhibition of Keap1-Nrf2 protein-protein interaction in rat H9c2 cells assessed as upregulation of NQO1 expression incubated for 12 hrs by Western blot analysis; format: cell-based; details: dose microM 0.1-10, time 12.0 hrs
[19] = AUC (0 to t) in rat at 5 mg/kg, iv by LC-MS/MS analysis; format: ADME, organism-based; design: dose 5 mg/kg; details: in vivo
[20] = Apparent volume of distribution in rat at 5 mg/kg, iv by LC-MS/MS analysis; format: ADME, organism-based; details: in vivo, read-out: Vz
[21] = target: T1, KEAP1/NRF2 (Rattus norvegicus); experiment: Inhibition of Keap1-Nrf2 protein-protein interaction in rat H9c2 cells assessed as upregulation of NQO1 mRNA expression incubated for 12 hrs by Trizol reagent based qRT-PCR analysis; format: cell-based; details: dose microM 0.1-10, time 12.0 hrs

inhibition [1]: Dose-dependent effect
inhibition at 20 min, 10 µM (CYP1A2): 8.75%
inhibition at 20 min, 10 µM (CYP2C19): 19.8%
inhibition at 20 min, 10 µM (CYP3A4): 46.9%
Cmax [10]: 78.2 µg/mL
inhibition [11]: Dose-dependent effect
inhibition at 20 min, 10 µM (CYP2C9): 30.3%
half-life at 1 µM [13]: 2.52 h
inhibition [14]: Active
inhibition [17]: Dose-dependent effect
inhibition [18]: Dose-dependent effect
AUC(0-t) [19]: 47000 ng·h/mL
Vd [20]: 0.64 L/kg
inhibition [21]: Dose-dependent effect
SMILES: COc1ccc(S(=O)(=O)NC(=O)CN(c2cccc3c2CCN3C(C(=O)NS(=O)(=O)c2ccc(C)cc2OC)c2cccc(OC)c2)S(=O)(=O)c2ccc(OC)cc2)cc1 (stereo not given)
Activity (Mus musculus [2]): Active
Activity (H9c2 [3]): Active
Activity (H9c2 [4]): Active
Activity (Mus musculus [5]): Active
Activity (Mus musculus [6]): Active
Activity (H9c2 [7]): Dose-dependent effect
Activity (Mus musculus [8]): Active
Activity (H9c2 [9]): Non-Toxic
Activity (Mus musculus [12]): Active
Activity (Mus musculus [15]): Active
Activity (Mus musculus [16]): Active
